Assay results taken from patent US11617814B2, “Methods of treatment comprising administering polymer particles configured for intravascular delivery of pharmaceutical agents” (TERUMO CORPORATION, priority 2016, dated 2023).

Columns and labels:
[1] = Solubility of SN-38 in water, observed in the elution extract; assay type: physicochemical; conditions: yellow precipitate formed in the extract solution
Experimental: The kinetics of SN-38 elution from the preloaded particles is illustrated in FIG. 1. The theoretical amount of SN-38 tethered on the particles is 15 mg for 100 mg of particles assuming no loss of the drug during the preparation of the particles. Upon immersion in PBS, SN-38 was eluted slowly over a period of time. On day 8, there was approximately 3% of SN-38 eluted. The elution curve obtained is fairly close to a linear line over the period of 8 days with a steady daily release between 3-5% of loaded SN-38 indicating controlled release of SN-38 is achieved with the preloaded particles. The total amount of SN-38 eluted during the first 8 days was 34% of the theoretical amount.

[2] = In vivo elution: systemic concentration of SN-38 in plasma after embolization, LC/MS/MS
Experimental: (§1) Blood samples were obtained to determine the systemic concentration of SN-38 before embolization as well as 20, 40, 60, 120 and 180 minutes post-embolization. An additional blood sample was collected at sacrifice, which was at day 6. Plasma was prepared by centrifugation and the samples were frozen at −80° C. until analysis.
Quantitation was done via liquid chromatography-tandem mass spectrometry (LC/MS/MS) using an Agilent 1260 Infinity HPLC system coupled with ABSciex 4000 Q Trap LC/MS/MS system. Chromatographic separation was performed using an Agilent Poroshell 120 C18 column (4.6 mm×50 mm, 2.7 μm) at 25° C. and mobile phases consisting of A: 0.1% formic acid in acetonitrile and B: 0.1% formic acid in water. At a flow rate of 1.0 mL/min, the chromatographic gradient was 27% buffer A from 0.0-0.3 min, 27-52% from 0.3-2.5 min, 52-80% from 2.5-2.6 min, 80% from 2.6-2.7 min, 80-27% from 2.7-2.8 min, 27% from 2.9-4.0 min. The plasma samples were precipitated with 3 fold excess (v/v) of acetonitrile containing 50 ppb of the internal standard, camptothecin. After being vortexed and centrifuged at 13,000 rpm at 4° C. for 10 minutes, 200 μL of the supernatant of each sample was diluted with 600 μL of 0.1% formic acid in water. Injection of 100 μL of the diluted sample was performed. The calibration curve was prepared by spiking blank plasma to a range from 2.5-500 ppb for SN-38. […]

[3] = In vivo elution: systemic concentration of oxaliplatin in plasma after embolization, LC/MS/MS; set-up: species or system pig
Experimental: as §1, with “oxaliplatin” for “SN-38”, “6 or day 7.” for “6.”
Quantitation was done via LC/MS/MS using an Agilent 1260 Infinity HPLC system coupled with ABSciex 4000 Q Trap LC/MS/MS system. Chromatographic separation was performed using an Agilent Poroshell 120 C18 column (4.6 mm×50 mm, 2.7 μm) at 50° C. and mobile phase consisting of A: 0.1% formic acid in acetonitrile and B: 0.1% formic acid in water. At a flow rate of 500 μL/min, the chromatographic gradient was 0% buffer A from 0.0-2.5 min, 0-90% from 2.5-2.6 min, 90% from 2.6-4.1 min, 90-0% from 4.1-4.2 min, and 0% from 4.2-10.0 min. The divert valve was open from 1.4-2.7 min and 3.4-4.6 min. The plasma samples were purified by ultracentrifugation first and then solid phase extraction. Plasma sample, 500 μL, was loaded onto a 30K Nanosep Centrifuge Device and centrifuged to collect the plasma ultra-filtrate. The centrifugation was performed at 4° C., starting at 8,000 rcf for 30 mins, 9,000 rcf for 30 mins, and 10,000 rcf for 15 mins with an increment of 1,000 rcf every 15 mins until 13,000 rcf for 2 hrs and 15 mins. The collected plasma ultra-filtrate was diluted with 1:1 (v/v) ratio of acetonitrile containing 500 ppb of the internal standard, carboplatin. The mixture, 600 μL, was loaded onto a 1 mL HybridSPE-Phospholipid cartridge, which was placed in a 15 mL conical centrifuge tube and centrifuged at 4° C. at 1,000 rcf for 5 mins and then 4,000 rcf for 5 mins. The sample collected in the centrifuge tube was then transferred to an HPLC vial for analysis. Injection of 50 μL of the sample was performed. The calibration curve was prepared by spiking the blank plasma ultra-filtrate to a range from 5-2000 ppb. The systemic concentration of oxalipatin in plasma over time is illustrated in FIG. 3.

Row | Structure (SMILES) | solubility of SN-38 in water [1] | systemic concentration of SN-38 in plasma ([2]; each time point: pre-embolization, 20, 40, 60, 120, 180 min post-embolization and day 6, calibration 2.5-500 ppb) | time of highest systemic concentration of SN-38 ([2]; post embolization, plasma) [h] | systemic concentration of oxaliplatin in plasma ([3]; each time point: pre-embolization, 20, 40, 60, 120, 180 min post-embolization and day 6 or 7, plasma ultra-filtrate, calibration 5-2000 ppb) | systemic concentration of oxaliplatin at day 6 ([3]; one sample pig, day 6) | time of highest systemic concentration of oxaliplatin ([3]; post embolization, one sample pig) [h]
1 | CCc1c2c(nc3ccc(O)cc13)-c1cc3c(c(=O)n1C2)COC(=O)[C@]3(O)CC [SN-38, 7-ethyl-10-hydroxy-camptothecin] | poor solubility | lower than the lower limit of quantitation | 3 |  |  | 
2 | O=C1[O][Pt]2([NH][C@@H]3CCCC[C@H]3[NH]2)[O]C1=O [oxaliplatin] |  |  |  | lower than the lower limit of quantitation | close to pre-embolization | 3
